Values of other authors in patent US20200038414A1, “METHODS OF TREATING CONSTIPATION USING AMINOSTEROL COMPOSITIONS” (Enterin, Inc., priority 2018, published 2020).

What was measured:
[1] = tested on: PD population with constipation; conditions: short term placebo controlled trial in PD; loose stools/diarrhea in place of constipation; cited from earlier work
[2] = tested on: C. elegans model of PD; conditions: C. elegans model; cited from earlier work
[3] = tested on: mouse models of PD; conditions: several mouse models of PD; cited from earlier work
[4] = following systemic administration, in mice; into the duodenum through the biliary tract; cited from earlier work

| Compound | share of treated patients in whom effective [1] | effect on muscle paralysis [2] | effect on gastrointestinal dysmotility [3] | clearance and excretion [4] |
| --- | --- | --- | --- | --- |
| CCCCC(F)(F)[C@@]1(O)CC[C@H]2[C@@H](CC(=O)[C@@H]2CCCCCCC(=O)O)O1 [Lubiprostone] | about 50% | – | – | – |
| CC(C)[C@@H](CC[C@@H](C)[C@H]1CC[C@H]2[C@@H]3[C@H](O)C[C@H]4C[C@@H](NCCCNCCCCN)CC[C@]4(C)[C@H]3CC[C@]12C)OS(=O)(=O)O [squalamine] | – | complete reversal of muscle paralysis | reverse gastrointestinal dysmotility | cleared by the liver and excreted as the intact molecule |
